Measured values published in PubChem BioAssay AID1963976 (Molecular Pharmacology Branch, DTP, NCI, 2024).

Tested on: 435261-313-R-J1-PDC tumor spheroid viability
Test: Anticancer human tumor 435261-313-R-J1-PDC patient-derived colon adenocarcinoma cell line growth inhibition [PI3K]
Conditions: spheroids with HUVEC and MSC; for IC50: curve of first compound; for viability, T/C: stronger effect = lower value
Description: Combinatorial screen of targeted agents with the PI3K inhibitors inavolisib, alpelisib, duvelisib, and copanlisib in multi-cell type tumor spheroids
A high-throughput screen of multi-cell type tumor spheroids was designed to identify active combinations of targeted small molecules and PI3K pathway inhibitors. Complex spheroids include a stromal component modeled by human endothelial cells (HUVEC) and fibroblasts modeled by human mesenchymal stem cells (MSCs). The concentration ranges selected for each drug and investigational agent were based upon clinically achievable concentrations if the clinical Cmax of the agent was known.
Compounds. The drugs and investigational agents: inavolisib (NSC800729), alpelisib (NSC765974), duvelisib (NSC772469), copanlisib (NSC816437), ipatasertib (NSC767898), afuresertib (NSC778305), talazoparib (NSC767125), sapanisertib (NSC764658), selumetinib (NSC741078), tovorafenib (DAY101, NSC766906), vemurafenib (NSC761431), ravoxertinib (NSC781343), sotorasib (NSC818433), MRTX1133 (NSC 836407), abemaciclib (NSC 768073), palbociclib (NSC758247), venetoclax (NSC 766270), SY5609 (NSC837396), enzalutamide (NSC755605), and darolutamide (NSC825331), were obtained from the National Cancer Institute (NCI) Developmental Therapeutics Program Chemical Repository. The FDA-approved anticancer drug set is available from the NCI Developmental Therapeutics Program. […] The stock solutions were prepared in dimethyl sulfoxide (DMSO, Sigma-Aldrich, St. Louis, MO, cat. D2650) at 800-fold the tested concentration and stored at -70 degrees C prior to their use. All drugs and investigational agents were tested over a range starting from a high concentration at or near the clinical Cmax and decreasing in half-log increments. If the clinical Cmax for an agent had not been determined, the highest concentration tested was 10 microM.
Cell Culture. All cells were maintained in an incubator at 37 degrees C and 5% CO2 with 95% humidity. The PDC lines were cultured according to standard operating procedures established by the NCI PDMR (https://pdmr.cancer.gov/sops/default.htm). All PDCs were thawed and cultured in Matrigel-coated flasks prepared with a working solution of 1X Ham's F-12 nutrient mix, without supplementation (Invitrogen, Waltham, MA, cat. 11765054), 100 U/mL penicillin-streptomycin (Invitrogen, cat. 15140122), and 2.5% Matrigel (Corning Inc., Corning, NY, cat. 354248) for the first three passages. The 354836-022-R-J1-PDC, 475296-252-R-J1-PDC, and 997726-040-R-J2-PDC lines were cultured in 6A media, which includes advanced DMEM/F-12 (Thermo Fisher Scientific, cat. 12634028), 10 mM HEPES (Thermo Fisher Scientific, cat. 15630080), 1X GlutaMAX supplement (Thermo Fisher Scientific, cat. 35050061), 0.1 mg/mL primocin (InvivoGen, San Diego, CA, cat. ant-pm-2), 10% defined fetal bovine serum, heat inactivated (HyClone Laboratories Inc., Logan, UT, cat. SH30070.03HI), 50% L-WRN conditioned media (ATCC, cat. CRL-3276), 1.25 mM N-Acetyl-L-cysteine (Sigma-Aldrich, cat. A9165), 10 mM nicotinamide (Sigma-Aldrich, cat. N0636), 1X B-27 supplement (Thermo Fisher Scientific, cat. 17504044), 1X N-2 supplement (Thermo Fisher Scientific, cat. 17502048), and 10 microM Y-27632 dihydrochloride (Tocris Bioscience, Bristol, United Kingdom, cat. 1254). The 624824-186-R-J2-PDC line was cultured in 6C/Colon 1B media, which includes all 6A media components plus 50 ng/mL human EGF recombinant protein (Thermo Fisher Scientific, cat. PHG0311). […]
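Further: spheroids exposed to compounds for 7 days.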

`Cn1ncc(Cl)c1-c1cc(C(=O)NC(CN)Cc2cccc(F)c2)sc1Cl` (stereo unspecified) + CC(Nc1ccc2c(c1)OCCn1cc(N3C(=O)OCC3C(F)F)nc1-2)C(N)=O gave an IC50 (second compound 0.00316 µM) of 567 nM, an IC50 (second compound 0.01 µM) of 447 nM and an IC50 (second compound 0.0316 µM) of 225 nM. The IC50 (second compound 0.1 µM) was 31.9 nM, the IC50 (second compound 0.316 µM) was < 31.6 nM and the IC50 (second compound 1 µM) was < 31.6 nM. The viability, T/C (second compound 0.00316 µM, first compound 0.0316 µM) was 75.2%, the viability, T/C (second compound 0.00316 µM, first compound 0.1 µM) was 84.9% and the viability, T/C (second compound 0.00316 µM, first compound 0.316 µM) was 67.3%. The viability, T/C (second compound 0.00316 µM, first compound 1 µM) was 31.6%, the viability, T/C (second compound 0.00316 µM, first compound 3.16 µM) was 18.7% and the viability, T/C (second compound 0.00316 µM, first compound 10 µM) was 7.28%. For the same compound, the viability, T/C (second compound 0.01 µM, first compound 0.0316 µM) was 67.9%, the viability, T/C (second compound 0.01 µM, first compound 0.1 µM) was 92.8% and the viability, T/C (second compound 0.01 µM, first compound 0.316 µM) was 51.9%. The viability, T/C (second compound 0.01 µM, first compound 1 µM) was 31.2%, the viability, T/C (second compound 0.01 µM, first compound 3.16 µM) was 19.1% and the viability, T/C (second compound 0.01 µM, first compound 10 µM) was 6.44%. The viability, T/C (second compound 0.0316 µM, first compound 0.0316 µM) was 67.8%, the viability, T/C (second compound 0.0316 µM, first compound 0.1 µM) was 91.3% and the viability, T/C (second compound 0.0316 µM, first compound 0.316 µM) was 37.5%. The viability, T/C (second compound 0.0316 µM, first compound 1 µM) was 25.3%, the viability, T/C (second compound 0.0316 µM, first compound 3.16 µM) was 17.2% and the viability, T/C (second compound 0.0316 µM, first compound 10 µM) was 5.79%. It also gave a viability, T/C (second compound 0.1 µM, first compound 0.0316 µM) of 50.8%, a viability, T/C (second compound 0.1 µM, first compound 0.1 µM) of 38% and a viability, T/C (second compound 0.1 µM, first compound 0.316 µM) of 21.1%. The viability, T/C (second compound 0.1 µM, first compound 1 µM) was 19.4%, the viability, T/C (second compound 0.1 µM, first compound 3.16 µM) was 15.4% and the viability, T/C (second compound 0.1 µM, first compound 10 µM) was 5.16%. For the same compound, the viability, T/C (second compound 0.316 µM, first compound 0.0316 µM) was 20.9%, the viability, T/C (second compound 0.316 µM, first compound 0.1 µM) was 20.1% and the viability, T/C (second compound 0.316 µM, first compound 0.316 µM) was 14%. It also gave a viability, T/C (second compound 0.316 µM, first compound 1 µM) of 16.5%, a viability, T/C (second compound 0.316 µM, first compound 3.16 µM) of 13% and a viability, T/C (second compound 0.316 µM, first compound 10 µM) of 4.44%. It also gave a viability, T/C (second compound 1 µM, first compound 0.0316 µM) of 18.2%, a viability, T/C (second compound 1 µM, first compound 0.1 µM) of 13.5% and a viability, T/C (second compound 1 µM, first compound 0.316 µM) of 15.7%. For the same compound, the viability, T/C (second compound 1 µM, first compound 1 µM) was 17.2%, the viability, T/C (second compound 1 µM, first compound 3.16 µM) was 11.4% and the viability, T/C (second compound 1 µM, first compound 10 µM) was 2.55%.
For `Cn1nccc1Nc1nccc(-c2ccn(C(CO)c3ccc(Cl)c(F)c3)c(=O)c2)n1` (stereo unspecified), the viability, T/C (compound 0.316 µM) was 68.2% [middle of 4 runs], the viability, T/C (compound 1 µM) was 45.7% [middle of 4 runs] and the viability, T/C (compound 3.16 µM) was 30.4% [middle of 4 runs]. The viability, T/C (compound 10 µM) was 18.4% [middle of 4 runs].
